In experiment [1] the target is T1, Aldehyde dehydrogenase, dimeric NADP-preferring (Homo sapiens, UniProt P30838).
T1 sequence (P30838 whole entry): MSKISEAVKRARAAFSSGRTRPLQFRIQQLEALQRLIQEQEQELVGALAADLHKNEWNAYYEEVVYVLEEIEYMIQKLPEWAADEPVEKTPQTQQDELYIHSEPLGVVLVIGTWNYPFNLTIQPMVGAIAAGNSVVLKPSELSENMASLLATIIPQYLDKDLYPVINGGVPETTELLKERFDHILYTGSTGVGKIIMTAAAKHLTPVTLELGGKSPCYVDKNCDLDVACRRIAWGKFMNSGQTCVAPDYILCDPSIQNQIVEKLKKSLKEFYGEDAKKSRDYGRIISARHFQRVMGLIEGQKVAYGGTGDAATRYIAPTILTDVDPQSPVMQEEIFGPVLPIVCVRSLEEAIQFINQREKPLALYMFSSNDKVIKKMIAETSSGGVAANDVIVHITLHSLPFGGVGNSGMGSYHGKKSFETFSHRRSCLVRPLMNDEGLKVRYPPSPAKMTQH
Briefly: Inhibition of full length human ALDH3A1 expressed in Escherichia coli BL21 (DE3) using benzaldehyde as substrate preincubated for 2 mins followed by substrate addition by spectrophotometry in presence of NADP+.

Experiment [2] has as its target T2, Aldehyde dehydrogenase, mitochondrial (Homo sapiens, UniProt P05091).
T2 sequence (P05091 whole entry): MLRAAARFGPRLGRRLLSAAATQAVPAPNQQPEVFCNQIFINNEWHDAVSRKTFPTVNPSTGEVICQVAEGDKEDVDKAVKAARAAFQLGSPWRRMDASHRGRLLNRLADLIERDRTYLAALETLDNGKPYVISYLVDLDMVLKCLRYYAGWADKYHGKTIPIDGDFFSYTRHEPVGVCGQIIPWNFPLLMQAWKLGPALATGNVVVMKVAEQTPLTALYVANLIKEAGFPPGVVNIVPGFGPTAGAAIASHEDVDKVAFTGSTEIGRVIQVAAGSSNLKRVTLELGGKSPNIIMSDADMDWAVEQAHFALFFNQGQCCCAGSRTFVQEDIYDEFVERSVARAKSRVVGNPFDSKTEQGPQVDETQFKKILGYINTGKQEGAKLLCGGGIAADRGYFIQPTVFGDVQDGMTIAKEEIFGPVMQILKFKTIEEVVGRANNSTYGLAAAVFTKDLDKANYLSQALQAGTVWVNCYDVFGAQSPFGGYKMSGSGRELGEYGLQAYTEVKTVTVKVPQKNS
Briefly: Inhibition of human ALDH2 using propionaldehyde as substrate preincubated for 2 mins followed by substrate addition by spectrophotometry in presence of NAD+.

Experiment [3] has as its target T3, Aldehyde dehydrogenase 1A1 (Homo sapiens, UniProt P00352).
T3 sequence (P00352 whole entry): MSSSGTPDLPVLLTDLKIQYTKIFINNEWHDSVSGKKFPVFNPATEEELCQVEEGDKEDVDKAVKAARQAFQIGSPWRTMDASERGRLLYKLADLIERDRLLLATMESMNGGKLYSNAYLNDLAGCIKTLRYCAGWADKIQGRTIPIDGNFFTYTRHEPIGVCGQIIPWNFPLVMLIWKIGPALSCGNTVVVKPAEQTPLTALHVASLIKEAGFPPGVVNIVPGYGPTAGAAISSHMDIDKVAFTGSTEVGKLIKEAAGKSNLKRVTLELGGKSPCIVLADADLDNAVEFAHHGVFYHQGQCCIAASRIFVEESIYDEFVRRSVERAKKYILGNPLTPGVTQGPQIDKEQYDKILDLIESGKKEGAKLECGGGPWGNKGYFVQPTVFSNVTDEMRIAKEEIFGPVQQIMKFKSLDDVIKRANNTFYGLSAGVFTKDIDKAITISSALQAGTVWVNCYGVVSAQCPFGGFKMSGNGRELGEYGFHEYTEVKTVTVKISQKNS
Briefly: Inhibition of human ALDH1A1 using propionaldehyde as substrate preincubated for 2 mins followed by substrate addition by spectrophotometry in presence of NAD+.

The target of experiment [4] is T1, Aldehyde dehydrogenase, dimeric NADP-preferring. Briefly: Inhibition of human ALDH3A1 using benzaldehyde as substrate by Lineweaver-Burk plot analysis.
Experiment [5] deals with T2, Aldehyde dehydrogenase, mitochondrial. Kind of experiment: Inhibition of human ALDH2 using propionaldehyde as substrate by Lineweaver-Burk plot analysis.
In experiment [6] the target is T3, Aldehyde dehydrogenase 1A1. Kind of experiment: Competitive inhibition of human ALDH1A1 using propionaldehyde as substrate by Lineweaver-Burk plot analysis.
Experiment [7] has as its target T1, Aldehyde dehydrogenase, dimeric NADP-preferring. Kind of experiment: Inhibition of human ALDH3A1 by Lineweaver-Burk plot analysis in presence of NADP+.
The target of experiment [8] is T2, Aldehyde dehydrogenase, mitochondrial. Kind of experiment: Inhibition of human ALDH2 by Lineweaver-Burk plot analysis in presence of NAD+.
For experiment [9], the target named is T3, Aldehyde dehydrogenase 1A1. Briefly: Noncompetitive/mixed type inhibition of human ALDH1A1 by Lineweaver-Burk plot analysis in presence of NAD+.

This passage reports IC50 and Ki results from ChEMBL document CHEMBL3124874, “Development of selective inhibitors for aldehyde dehydrogenases based on substituted indole-2,3-diones” (J Med Chem, 2014).

By IC50 is commonly meant the midpoint of a concentration-inhibition curve. Consider `O=C1C(=O)N(CN2CCN(Cc3ccc4c(c3)OCO4)CC2)c2ccccc21`, for which the half-maximal inhibitory concentration (IC50) in experiment [1] was 300 nM; in [2], > 100000 nM; in [3], 12000 nM.

For `O=C1C(=O)N(CCc2ccccc2)c2ccccc21`, the concentration for half-maximal inhibition (IC50) in experiment [2] was 3500 nM; in experiment [3], 70 nM.

`O=C1C(=O)N(CN2CCN(CN3C(=O)C(=O)c4ccccc43)C2)c2ccccc21`: the IC50 in [1] was 1600 nM; in experiment [3], 19000 nM.

Take `O=C1C(=O)N(Cc2ccccc2)c2ccc(Cl)cc21`: the values for the IC50 in experiment [2] and in [3] were 2100 nM and 60 nM, respectively.

By Ki is commonly meant a measure of affinity in units of concentration, obtained from inhibition or displacement. Take `Cc1cc(Br)c2c(c1)C(=O)C(=O)N2`: the Ki in experiment [4] stood at 380 nM; in [5], 1000 nM; in [6], 900 nM; in [7] it was 500 nM; in experiment [8], 2200 nM; in [9], 290 nM. Moreover, the IC50 in experiment [1] was determined as 360 nM; in experiment [2] it was 2400 nM; in [3], 720 nM.

In the case of `O=C1C(=O)N(C/C=C/c2ccccc2)c2ccc(Cl)cc21`, the IC50 in experiment [3] stood at 570 nM.

For the compound `O=C1C(=O)N(Cc2ccccc2)c2ccc(Br)cc21`, the half-maximal inhibitory concentration (IC50) in [2] is 2100 nM; in experiment [3] it was 580 nM.

For the compound `O=C1C(=O)N(C/C=C/c2ccccc2)c2ccccc21`, the concentration for half-maximal inhibition (IC50) was 310 nM in [1], > 100000 nM in experiment [2] and 70 nM in experiment [3].

Turning to `O=C1C(=O)N(CN2CCN(Cc3ccc4c(c3)OCO4)CC2)c2ccc(Br)cc21`, the half-maximal inhibitory concentration (IC50) was 73000 nM in experiment [1], > 100000 nM in [2] and 15000 nM in [3].

On to `O=C1C(=O)N(CN2CCN(Cc3ccccc3F)CC2)c2ccccc21`, for which the IC50 was determined as 1800 nM in experiment [1] and 4000 nM in [3].

Take `O=C1C(=O)N(CN2CCN(Cc3ccc(F)cc3)CC2)c2ccccc21`: the IC50 in experiment [1] is 1500 nM; in experiment [3] it was > 100000 nM.

For the compound `O=C1C(=O)N(CCc2ccccc2)c2ccc(Br)cc21`, the half-maximal inhibitory concentration (IC50) turned out to be 18000 nM in experiment [1], 50 nM in experiment [2] and 2000 nM in experiment [3].

Consider `CN1CCN(CN2C(=O)C(=O)c3ccccc32)CC1`, for which the half-inhibitory concentration (IC50) was 1600 nM in experiment [1], > 100000 nM in [2] and 35000 nM in experiment [3].

Take `O=C1C(=O)N(CCCc2ccccc2)c2ccccc21`: the IC50 was found to be 460 nM in [1], 1200 nM in experiment [2] and 50 nM in experiment [3].

For the compound `O=C1C(=O)N(CN2CCN(Cc3cccc(F)c3)CC2)c2ccccc21`, the half-inhibitory concentration (IC50) in [1] came to 1900 nM; in experiment [3], 35000 nM.

`O=C1C(=O)N(CCc2ccccc2)c2ccc(Cl)cc21`: the half-inhibitory concentration (IC50) in [2] came to 410 nM; in [3], 90 nM.

`CCCCCN1C(=O)C(=O)c2ccccc21`: the IC50 in [1] was found to be 420 nM; in experiment [2], 1700 nM; in experiment [3] it was 40 nM.

Turning to `O=C1C(=O)N(CN2CCN(Cc3ccccc3)CC2)c2ccccc21`, the IC50 was 930 nM in experiment [1], > 100000 nM in [2] and 50000 nM in [3].

In the case of `O=C1C(=O)N(CN2CCOCC2)c2ccccc21`, the 50% inhibitory concentration (IC50) was 1300 nM in experiment [1], > 100000 nM in experiment [2] and 20000 nM in experiment [3].

`O=C1C(=O)N(CN2CCN(Cc3cccc(Cl)c3)CC2)c2ccccc21`: the concentration for half-maximal inhibition (IC50) in [1] was 1700 nM; in experiment [3], > 100000 nM.

As to `COc1cccc(CN2CCN(CN3C(=O)C(=O)c4ccccc43)CC2)c1`, the IC50 in experiment [1] turned out to be 1200 nM; in [3] it was 34000 nM.
